Reference: patent US20120100990A1, “4 -AMINOPICOLINATES AND THEIR USE AS HERBICIDES” (SYNGENTA CROP PROTECTION LLC, priority 2009, published 2012)

What was measured:
Format in all cases: in vivo
[1] = system: Ipomea hederaceae (IPOHE); test: Post-emergence biological efficacy, glasshouse pot test; conditions: Ipomoea hederacea, 312 h, 1,000 g/ha, evaluated after 13 days, 100=total damage, 0=no damage, read-out: Percentage damage caused to weed species, post-emergence, IPOHE
Procedure: (§1) Seeds of Alopecurus myosuroides (ALOMY), Setaria faberi (SETFA), Echinochloa crus-galli (ECHCG), Solanum nigrum (SOLNI), Amaranthus retroflexus (AMARE) and Ipomea hederaceae (IPOHE) were sown in standard soil in pots. After cultivation for 8 days under controlled conditions in a glasshouse (at 24/16° C., day/night; 14 hours light; 65% humidity), the plants were sprayed with an aqueous spray solution derived from the formulation of the technical active ingredient in acetone/water (50:50) solution containing 0.5% Tween 20 (polyoxyethylene sorbitan monolaurate, CAS RN 9005-64-5) to give a final dose of 1000 or 250 g/ha of test compound. The test plants were then grown on under controlled conditions in a glasshouse (at 24/16° C., day/night; 14 hours light; 65% humidity) and watered twice daily. After 13 days the test was evaluated (100=total damage to plant; 0=no damage to plant).

[2] = system: Alopecurus myosuroides (ALOMY); test: as above; conditions: 312 h, 1,000 g/ha, evaluated after 13 days, 100=total damage, 0=no damage, read-out: Percentage damage caused to weed species, post-emergence, ALOMY
Procedure: as §1

[3] = system: Amaranthus retroflexus (AMARE); test: as above; conditions: 312 h, 1,000 g/ha, evaluated after 13 days, 100=total damage, 0=no damage, read-out: Percentage damage caused to weed species, post-emergence, AMARE
Procedure: as §1

Solanum nigrum (SOLNI) [4] = test: as above; conditions: 312 h, 1,000 g/ha, evaluated after 13 days, 100=total damage, 0=no damage, read-out: Percentage damage caused to weed species, post-emergence, SOLNI
Procedure: as §1

Setaria faberi (SETFA) [5] = test: as above; conditions: 312 h, 1,000 g/ha, evaluated after 13 days, 100=total damage, 0=no damage, read-out: Percentage damage caused to weed species, post-emergence, SETFA
Procedure: as §1

[6] = system: Echinochloa crus-galli (ECHCG); test: as above; conditions: 312 h, 1,000 g/ha, evaluated after 13 days, 100=total damage, 0=no damage, read-out: Percentage damage caused to weed species, post-emergence, ECHCG
Procedure: as §1

[7] = system: Ipomea hederaceae (IPOHE); test: Pre-emergence biological efficacy, glasshouse pot test; conditions: Ipomoea hederacea, 312 h, 1,000 g/ha, evaluated after 13 days, 100=total damage, 0=no damage, read-out: Percentage damage caused to weed species, pre-emergence, IPOHE
Procedure: (§2) Seeds of Alopecurus myosuroides (ALOMY), Setaria faberi (SETFA), Echinochloa crus-galli (ECHCG), Solanum nigrum (SOLNI), Amaranthus retroflexus (AMARE) and Ipomea hederaceae (IPOHE) were sown in standard soil in pots. After cultivation for one day under controlled conditions in a glasshouse (at 24/16° C., day/night; 14 hours light; 65% humidity), the plants were sprayed with an aqueous spray solution derived from the formulation of the technical active ingredient in acetone/water (50:50) solution containing 0.5% Tween 20 (polyoxyethylene sorbitan monolaurate, CAS RN 9005-64-5) to give a final dose of 1000 or 250 g/ha of test compound. The test plants were then grown under controlled conditions in the glasshouse (at 24/16° C., day/night; 14 hours light; 65% humidity) and watered twice daily. After 13 days the test was evaluated (100=total damage to plant; 0=no damage to plant).

[8] = system: Alopecurus myosuroides (ALOMY); test: as above; conditions: 312 h, 1,000 g/ha, evaluated after 13 days, 100=total damage, 0=no damage, read-out: Percentage damage caused to weed species, pre-emergence, ALOMY
Procedure: as §2

[9] = system: Amaranthus retroflexus (AMARE); test: as above; conditions: 312 h, 1,000 g/ha, evaluated after 13 days, 100=total damage, 0=no damage, read-out: Percentage damage caused to weed species, pre-emergence, AMARE
Procedure: as §2

Solanum nigrum (SOLNI) [10] = test: as above; conditions: 312 h, 1,000 g/ha, evaluated after 13 days, 100=total damage, 0=no damage, read-out: Percentage damage caused to weed species, pre-emergence, SOLNI
Procedure: as §2

Setaria faberi (SETFA) [11] = test: as above; conditions: 312 h, 1,000 g/ha, evaluated after 13 days, 100=total damage, 0=no damage, read-out: Percentage damage caused to weed species, pre-emergence, SETFA
Procedure: as §2

[12] = system: Echinochloa crus-galli (ECHCG); test: as above; conditions: 312 h, 1,000 g/ha, evaluated after 13 days, 100=total damage, 0=no damage, read-out: Percentage damage caused to weed species, pre-emergence, ECHCG
Procedure: as §2

SMILES: C=Cc1c(NCc2ccccc2C)cc(Cl)nc1C(=O)OC [Compound 9-12, 6-Chloro-3-ethenyl-4-[(2-methylphenyl-methyl)-amino]-pyridine-2-carboxylic acid methyl ester]
- pest or weed control at 1000 g/ha [1]: 40%
- pest or weed control at 1000 g/ha [2]: 40%
- pest or weed control at 1000 g/ha [3]: 100%
- pest or weed control at 1000 g/ha (Solanum nigrum (SOLNI) [4]): 80%
- pest or weed control at 1000 g/ha (Setaria faberi (SETFA) [5]): 50%
- pest or weed control at 1000 g/ha [6]: 50%
- pest or weed control at 1000 g/ha [7]: 60%
- pest or weed control at 1000 g/ha [8]: 10%
- pest or weed control at 1000 g/ha [9]: 90%
- pest or weed control at 1000 g/ha (Solanum nigrum (SOLNI) [10]): 100%
- pest or weed control at 1000 g/ha (Setaria faberi (SETFA) [11]): 0%
- pest or weed control at 1000 g/ha [12]: 10%

SMILES: C=Cc1c(NCc2ccc(N(C)C)cc2)cc(Cl)nc1C(=O)OC [Compound 14-12, 6-Chloro-4-[(4-dimethylamino-phenylmethyl)-amino]-3-ethenyl-pyridine-2-carboxylic acid methyl ester]
- pest or weed control at 1000 g/ha [1]: 50%
- pest or weed control at 1000 g/ha [2]: 60%
- pest or weed control at 1000 g/ha [3]: 100%
- pest or weed control at 1000 g/ha (Solanum nigrum (SOLNI) [4]): 90%
- pest or weed control at 1000 g/ha (Setaria faberi (SETFA) [5]): 80%
- pest or weed control at 1000 g/ha [6]: 50%
- pest or weed control at 1000 g/ha [7]: 100%
- pest or weed control at 1000 g/ha [8]: 80%
- pest or weed control at 1000 g/ha [9]: 100%
- pest or weed control at 1000 g/ha (Solanum nigrum (SOLNI) [10]): 100%
- pest or weed control at 1000 g/ha (Setaria faberi (SETFA) [11]): 80%
- pest or weed control at 1000 g/ha [12]: 30%

SMILES: COC(=O)c1nc(Cl)cc(NCc2ccccc2[N+](=O)[O-])c1Cl [Compound 15-2, 3,6-Dichloro-4-[(2-nitrophenylmethyl)-amino]-pyridine-2-carboxylic acid methyl ester]
- pest or weed control at 1000 g/ha [1]: 90%
- pest or weed control at 1000 g/ha [2]: 70%
- pest or weed control at 1000 g/ha [3]: 100%
- pest or weed control at 1000 g/ha (Solanum nigrum (SOLNI) [4]): 100%
- pest or weed control at 1000 g/ha (Setaria faberi (SETFA) [5]): 90%
- pest or weed control at 1000 g/ha [6]: 70%
- pest or weed control at 1000 g/ha [7]: 100%
- pest or weed control at 1000 g/ha [8]: 90%
- pest or weed control at 1000 g/ha [9]: 100%
- pest or weed control at 1000 g/ha (Solanum nigrum (SOLNI) [10]): 100%
- pest or weed control at 1000 g/ha (Setaria faberi (SETFA) [11]): 90%
- pest or weed control at 1000 g/ha [12]: 80%

SMILES: C=Cc1c(NCc2ccccc2[N+](=O)[O-])cc(Cl)nc1C(=O)OC [Compound 15-12, 6-Chloro-3-ethenyl-4-[(2-nitrophenylmeth-yl)-amino]-pyridine-2-carboxylic acid methyl ester]
- pest or weed control at 1000 g/ha [1]: 60%
- pest or weed control at 1000 g/ha [2]: 80%
- pest or weed control at 1000 g/ha [3]: 100%
- pest or weed control at 1000 g/ha (Solanum nigrum (SOLNI) [4]): 90%
- pest or weed control at 1000 g/ha (Setaria faberi (SETFA) [5]): 100%
- pest or weed control at 1000 g/ha [6]: 70%
- pest or weed control at 1000 g/ha [7]: 100%
- pest or weed control at 1000 g/ha [8]: 70%
- pest or weed control at 1000 g/ha [9]: 100%
- pest or weed control at 1000 g/ha (Solanum nigrum (SOLNI) [10]): 100%
- pest or weed control at 1000 g/ha (Setaria faberi (SETFA) [11]): 80%
- pest or weed control at 1000 g/ha [12]: 90%

SMILES: COC(=O)c1nc(Cl)cc(NCc2ccccc2[N+](=O)[O-])c1Br [Compound 15-17, 3-Bromo-6-chloro-4-[(2-nitrophenylmethyl)-amino]-pyridine-2-carboxylic acid methyl ester]
- pest or weed control at 1000 g/ha [1]: 80%
- pest or weed control at 1000 g/ha [2]: 50%
- pest or weed control at 1000 g/ha [3]: 80%
- pest or weed control at 1000 g/ha (Solanum nigrum (SOLNI) [4]): 90%
- pest or weed control at 1000 g/ha (Setaria faberi (SETFA) [5]): 80%
- pest or weed control at 1000 g/ha [6]: 30%
- pest or weed control at 1000 g/ha [7]: 90%
- pest or weed control at 1000 g/ha [8]: 40%
- pest or weed control at 1000 g/ha [9]: 100%
- pest or weed control at 1000 g/ha (Solanum nigrum (SOLNI) [10]): 90%
- pest or weed control at 1000 g/ha (Setaria faberi (SETFA) [11]): 60%
- pest or weed control at 1000 g/ha [12]: 20%
